Literature values, collected in patent publication US8420367B2, “Polynucleotides encoding mutant hydrolase proteins with enhanced kinetics and functional expression” (Promega Corporation, priority 2006, dated 2013).

Biological target: tetracysteine domain in a recombinant protein

Question: With `O=C1OC2(c3ccccc31)c1ccc(O)c([As]3SCCS3)c1Oc1c2ccc(O)c1[As]1SCCS1` [FLASH, 4′,5′-bis(1,3,2-dithioarsolan-2-yl)fluorescein] as the compound, how does the dissociation constant read?
Answer: nanomolar or lower
